Columns and labels:
[1] = human studies, ambrisentan 5 and 10 mg/day; cited from earlier work
[2] = Stability of ambrisentan liquid compositions; assay type: physicochemical; conditions: use of an autoclave
From the text: The liquid compositions of the invention can be prepared using conventional techniques. Typically, the invention pertains to a process for preparing a liquid composition comprising the steps of (a) contacting the endothelin receptor antagonist, preferably ambrisentan, the buffer and the solvent and optionally the excipient and (b) stirring the solution to allow dissolution of the various ingredients, in particular the endothelin receptor antagonist or ambrisentan; and (c) subsequently sterilizing the resulting solution. Step (a) of the process of the invention may comprise of contacting all ingredients at once or it may comprise contacting the ingredients in sequential order, whereby the one or more steps can proceed at the same temperature or at different temperatures. For example, the ingredients that easily dissolve in the solvent at room temperature can be contacted at room temperature first, and subsequently the temperature can be raised, e.g. to 50° C., after which the lowly soluble compounds are added, e.g. the endothelin receptor antagonist such as ambrisentan. Step (b) may proceed until no solid particles can be discerned visually or through analytical techniques. The sterilization of step (c) of the process can be conducted using any sterilization technique known in the art such as filtration and autoclave sterilization. […]

healthy human subjects = assay: 24-hour intravenous ambrisentan infusion in healthy human subjects: urine output, water balance, free water clearance; assay type: in vivo
Protocol: A study was performed to determine whether lower concentrations of ambrisentan in blood are less likely to produce renal side effects as those seen with current concentrations achieved with the current commercial presentation of ambrisentan. In this study a liquid composition of ambrisentan at a concentration of 5 mg/mL was administered to 20 healthy human subjects at varying rates of administration in order to achieve different ambrisentan concentrations in blood and over a period of 24 hours. Target concentrations in the low dose group were 20 and 40 ng/mL (Group A) after 4 hours and 16 hours respectively, and 80 and 160 ng/mL in the high dose group (Group B) after 4 hours and 16 hours respectively. […] Steady state for each target concentration was maintained for at least 8 hours prior to increasing the concentration. Ten subjects were assigned to Group A and ten subjects to Group B. Pharmacokinetic and plasma ET-1 samples were collected and analysed at different timepoints for up to 72 hours. Urine was collected for 24 hours and in intervals from 0-2 hours, 2-4 hours, 4-8 hours, 8-12, hours, 12-18 hours and 18-24 hours.
All subjects received a 100 ml/hr infusion of 0.45% physiological solution for 24 hours and ambrisentan was administered in a 250-mL solution of 0.9% of physiological solution over a period of 24 hours. Subjects had free access to water and a normal diet. At a minimum, subjects received through intravenous infusion a total of 2650 mL of water and 223.3 mmol of sodium in the 24-hour period of drug administration.
The effect on urine was consistent throughout the different collection periods of the 24-hour infusion period. Patients in Group A maintained higher urinary output rates throughout the study as compared to Group B. In the Tables Below, Water Balance is the result of subtracting urine volume from intravenous liquid input.
The increase in urine formation (diuresis) was further characterised by determining the effect of ambrisentan on urine composition, specifically urine osmolality.

ETB receptor = molecular target: T1, ETB receptor (Homo sapiens, UniProt P24530); assay: Plasma endothelin-1 as measure of ETB receptor blockade in healthy human subjects; assay type: in vivo; conditions: Group B (high dose, target 80 and 160 ng/mL)
T1 construct: from tissue; host or cells: living healthy human subjects (in vivo study; plasma endothelin-1 measured)
T1 sequence (P24530 27-442): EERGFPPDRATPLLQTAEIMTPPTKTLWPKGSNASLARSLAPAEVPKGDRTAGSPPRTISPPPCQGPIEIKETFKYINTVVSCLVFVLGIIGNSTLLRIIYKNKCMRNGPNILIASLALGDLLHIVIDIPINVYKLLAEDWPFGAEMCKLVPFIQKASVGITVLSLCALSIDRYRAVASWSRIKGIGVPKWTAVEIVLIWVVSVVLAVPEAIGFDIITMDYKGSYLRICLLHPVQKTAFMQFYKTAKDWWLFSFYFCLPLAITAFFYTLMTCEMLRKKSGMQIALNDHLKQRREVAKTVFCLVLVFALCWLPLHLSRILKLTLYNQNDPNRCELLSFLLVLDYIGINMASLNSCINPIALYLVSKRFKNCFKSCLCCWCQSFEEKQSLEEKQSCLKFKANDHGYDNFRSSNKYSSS
Protocol: Finally, the effect of the different concentrations of ambrisentan on the ETB receptor blockade was determined by measuring plasma endothelin-1 at different timepoints of the study.

porcine kidneys = assay: Reperfusion of porcine kidneys following ischemic injury with endothelin-1 challenge; set-up: species or system Landrace cross female pigs; conditions: treated kidneys, ambrisentan 150 μg/l
Protocol: All experiments were undertaken in accordance with the Home Office animals (Scientific Procedures) Act 1986. Ten kidneys were retrieved from 5 Landrace cross female pigs weighing approximately 50 kg. Two pairs of kidneys underwent 20 minutes of warm ischaemic injury and were then flushed with 500 m1 of UW solution at 4° C. and stored on ice for 18 hours. After 18 hours cold storage, kidneys were prepared and flushed with 100 m1 of Ringer's solution 4° C. with or without liquid composition of Example 1 which is diluted to an ambrisentan concentration of 150 μg/l. They were then left at room temperature for 20 minutes. The remaining three pairs of kidneys were retrieved after 10 minutes of warm ischaemia and stored on ice for 6 hours. They were prepared and flushed as previously described then left at room temperature for 10 minutes before reperfusion.
Kidneys were perfused with 1 liter of diluted whole autologous heparinized blood at 38.0° C. for 6 hours to assess renal function and injury. 1000 μmol/l of creatinine (Sigma-Aldrich) was added to the circuit. In the treated kidneys the ambrisentan-containing liquid composition as described above (150 μg/l) was added to the reperfusion circuit 10 minutes before the start of reperfusion. In the control and treated kidneys after 2 h 50 min of reperfusion, endothelin-1 (Sigma-Aldrich) was added to the arterial line of reperfusion circuit to achieve a concentration of (20 pg/ml). A sample of the perfusate was taken from the renal vein during the post preservation flush. Perfusion data was recorded after 30 minutes of reperfusion then at each hour. Plasma and urine samples were taken pre-reperfusion, 30 minutes after reperfusion, then at hourly time points to measure renal function.

[3] = Raina et al; cited from earlier work
[4] = time 180 min (endothelin-1 20 pg/ml added after 2 h 50 min)
[5] = time 240 min (after endothelin-1)
[6] = time 300 min (after endothelin-1)
[7] = time 360 min (after endothelin-1)

- stability on autoclave sterilization [2]: can decompose
- increase in plasma endothelin-1 from baseline (ETB receptor): more than 50%
SMILES: COC(c1ccccc1)(c1ccccc1)[C@H](Oc1nc(C)cc(C)n1)C(=O)O [ambrisentan]
- plasma levels [1]: exceeding 350 ng/ml
- Hourly Water Balance, Mean (healthy human subjects; Group A (low dose, target 20 and 40 ng/mL), collection period 0 H to 2 H): -74.58 mL/h
- Hourly Water Balance, Mean (healthy human subjects; Group A (low dose, target 20 and 40 ng/mL), collection period 2 H to 4 H): -76.08 mL/h
- Hourly Water Balance, Mean (healthy human subjects; Group A (low dose, target 20 and 40 ng/mL), collection period 4 H to 8 H): -1.08 mL/h
- Hourly Water Balance, Mean (healthy human subjects; Group A (low dose, target 20 and 40 ng/mL), collection period 8 H to 12 H): -12.58 mL/h
- Hourly Water Balance, Mean (healthy human subjects; Group A (low dose, target 20 and 40 ng/mL), collection period 12 H to 18 H): -13.75 mL/h
- Hourly Water Balance, Mean (healthy human subjects; Group A (low dose, target 20 and 40 ng/mL), collection period 18 H to 24 H): -32.92 mL/h
- Cumulative Water Balance, Mean (healthy human subjects; Group A (low dose, target 20 and 40 ng/mL), end of collection 2 H): -149.17 mL
- Cumulative Water Balance, Mean (healthy human subjects; Group A (low dose, target 20 and 40 ng/mL), end of collection 4 H): -301.33 mL
- Cumulative Water Balance, Mean (healthy human subjects; Group A (low dose, target 20 and 40 ng/mL), end of collection 8 H): -305.67 mL
- Cumulative Water Balance, Mean (healthy human subjects; Group A (low dose, target 20 and 40 ng/mL), end of collection 12 H): -356.00 mL
- Cumulative Water Balance, Mean (healthy human subjects; Group A (low dose, target 20 and 40 ng/mL), end of collection 18 H): -438.50 mL
- Cumulative Water Balance, Mean (healthy human subjects; Group A (low dose, target 20 and 40 ng/mL), end of collection 24 H): -636.00 mL
- Hourly Water Balance, Mean (healthy human subjects; Group B (high dose, target 80 and 160 ng/mL), collection period 0 H to 2 H): -6.33 mL/h
- Hourly Water Balance, Mean (healthy human subjects; Group B (high dose, target 80 and 160 ng/mL), collection period 2 H to 4 H): 11.17 mL/h
- Hourly Water Balance, Mean (healthy human subjects; Group B (high dose, target 80 and 160 ng/mL), collection period 4 H to 8 H): 27.17 mL/h
- Hourly Water Balance, Mean (healthy human subjects; Group B (high dose, target 80 and 160 ng/mL), collection period 8 H to 12 H): 7.17 mL/h
- Hourly Water Balance, Mean (healthy human subjects; Group B (high dose, target 80 and 160 ng/mL), collection period 12 H to 18 H): -10.08 mL/h
- Hourly Water Balance, Mean (healthy human subjects; Group B (high dose, target 80 and 160 ng/mL), collection period 18 H to 24 H): 34.75 mL/h
- Cumulative Water Balance, Mean (healthy human subjects; Group B (high dose, target 80 and 160 ng/mL), end of collection 2 H): -12.67 mL
- Cumulative Water Balance, Mean (healthy human subjects; Group B (high dose, target 80 and 160 ng/mL), end of collection 4 H): 9.67 mL
- Cumulative Water Balance, Mean (healthy human subjects; Group B (high dose, target 80 and 160 ng/mL), end of collection 8 H): 118.33 mL
- Cumulative Water Balance, Mean (healthy human subjects; Group B (high dose, target 80 and 160 ng/mL), end of collection 12 H): 147.00 mL
- Cumulative Water Balance, Mean (healthy human subjects; Group B (high dose, target 80 and 160 ng/mL), end of collection 18 H): 86.50 mL
- Cumulative Water Balance, Mean (healthy human subjects; Group B (high dose, target 80 and 160 ng/mL), end of collection 24 H): 295.00 mL
- fluid accumulation (healthy human subjects; ambrisentan concentrations above 100 ng/mL): significant accumulation of fluid through the inability to increase urinary output
- renal effect, fluid retention (healthy human subjects; total ambrisentan lower than 100 ng/mL): have less of an effect on fluid retention
- renal effect, fluid retention (healthy human subjects; total ambrisentan of about 100 ng/mL and higher): show an adverse renal effect by promoting fluid retention
- Oxygen consumption (porcine kidneys; 1 h of reperfusion): 63%
- Oxygen consumption (porcine kidneys; 3 h of reperfusion): 64%
- Oxygen consumption (porcine kidneys; 6 h of reperfusion): 55%
- Renal blood flow (porcine kidneys; time 0 min): 45 ml/min/100 g
- Renal resistance (porcine kidneys; time 0 min): 1.22 mmHg/min/100 g
- Urine flow (porcine kidneys; time 0.5 h): 148 mL
- Renal blood flow (porcine kidneys; time 30 min): 79 ml/min/100 g
- Renal resistance (porcine kidneys; time 30 min): 0.58 mmHg/min/100 g
- Urine flow (porcine kidneys; time 1 h): 124 mL
- Renal blood flow (porcine kidneys; time 60 min): 84 ml/min/100 g
- Renal resistance (porcine kidneys; time 60 min): 0.55 mmHg/min/100 g
- Renal blood flow (porcine kidneys; time 120 min): 85 ml/min/100 g
- Renal resistance (porcine kidneys; time 120 min): 0.56 mmHg/min/100 g
- Urine flow (porcine kidneys; time 2 h): 116 mL
- Urine flow (porcine kidneys; time 3 h): 80 mL
- Renal blood flow (porcine kidneys; [4]): 85 ml/min/100 g
- Renal resistance (porcine kidneys; [4]): 0.60 mmHg/min/100 g
- Urine flow (porcine kidneys; time 4 h): 62 mL
- Renal blood flow (porcine kidneys; [5]): 97 ml/min/100 g
- Renal resistance (porcine kidneys; [5]): 0.56 mmHg/min/100 g
- Urine flow (porcine kidneys; time 5 h): 44 mL
- Renal blood flow (porcine kidneys; [6]): 93 ml/min/100 g
- Renal resistance (porcine kidneys; [6]): 0.62 mmHg/min/100 g
- Renal blood flow (porcine kidneys; [7]): 77 ml/min/100 g
- Renal resistance (porcine kidneys; [7]): 0.78 mmHg/min/100 g
- pharmacokinetic interactions with cyclosporine A and tacrolimus [3]: absence of pharmacokinetic interactions

— patent publication US11642307B2, “Ambrisentan for use in the treatment of acute renal failure” (Noorik Biopharmaceuticals AG, priority 2016, dated 2023)
